Experiments:
Type in all cases: in vivo, human
[1] = system: Six panelists experienced in the evaluation of food and beverages; assay: Tasting of sweeteners with and without Zemea USP-FCC propanediol; conditions: sweetener with 5 ppm Zemea USP-FCC Propanediol versus without
Excerpt: Six panelists experienced in the evaluation of food and beverages tasted sweeteners and commercial beverages with and without the addition of Zemea USP-FCC propanediol. The six panelists tasted the products and discussed their perceptions of the flavor. They indicated whether the test or control product in each pair was sweeter, less bitter, and/or less sour.

40 untrained panelists = assay: Paired comparison test for bitterness, reduced sugar stevia sweetened orange juice
Description: Paired comparison tests for bitterness were conducted on 40 untrained panelists. The reduced sugar stevia sweetened orange juice was used as the control and was prepared with 0.0005% Zemea® USP-FCC (5 ppm) as the test variable. The products were served in 2-ounce soufflé cups labeled with 3-digit codes at refrigerated temperatures. The panelists were asked to identify the sample that was more bitter. Bottled water and unsalted crackers were available for panelists to clear their palates before and during testing.

[2] = system: Six panelists experienced in the evaluation of food and beverages; assay: Screening of Zemea USP-FCC at 5, 20 and 100 ppm in reduced sugar stevia sweetened orange juice; conditions: 5 ppm, compared with 20 and 100 ppm and control
Excerpt: Six panelists experienced in the evaluation of food and beverages screened Zemea® USP-FCC at 5, 20, and 100 ppm in a reduced sugar stevia sweetened orange juice. The reduced sugar stevia sweetened orange juice containing no Zemea® USP-FCC was used as the control.

panelists [3] = assay: Absolute taste threshold of Zemea USP-FCC PDO in water (flash profile, blind tasting); conditions: at 690 ppm (FEMA #4753 use limit for beverages)
Excerpt: (§1) • 1. Panelists: Recruit at least 5 and preferably 12 staff who has no allergy to the big 8 food allergens. • 2. Prototypes: • a. Freshly made to same age (<1 week if possible) • b. Serve all samples at same size (>1 oz for beverages), and at same temperature (70F for foods, 40F for beverages) • 3. Random coded (3-digit) and random ordered up to 5 samples • 4. Keep to less than 5 samples per panel session. Less than 4 panels/day. • 5. For each panelist, ship (under covid-19): • a. one set of 5 samples • b. one instruction (this page) ballot (attachment 1) and one example for how to fill in (attachment 2) • c. one bottled water (Aquafina or equivalent, no minerals added. Panelist to bring own under covid-19) • 6. […] Describe the panelists how to blind-taste same day upon receipt according to panelists instruction below. • 8. […] Ask each panelist to scan/send a picture of the filled-in ballot to panel leader. Panel leader will issue a “directional analysis” (1 day) as a minimum and may include PCA (3 days) leading to conclusions and recommendations.
(§2) Instruction for Flash Profiling Method panelists: • 1. […] Please taste this set mid-morning (9a-N) or mid-afternoon (2-4p) if possible • 3. Arrange the 5 samples in front of you in any order • 4. For the Flash Profiling Method ballot, fill in today's Date, your Name, and Sample (s) as “project xxx-Round x samples” • 5. […]

panelists [4] = assay: Flash profile blind tasting of beverages and bitter substances with Zemea USP-FCC added; conditions: Zemea added at 5-940 ppm to the beverages and bitter substances of Table 1; blind tasting by N>6
Excerpt: as §1, §2

## O=C(CO)C(O)C(O)C(O)CO (stereo not shown) [Allulose]
[1]
  Effect: Enhanced sweetness

## OC[C@@H](O)[C@@H](O)CO [Erythritol]
[1]
  Effect: Enhanced sweetness

## OC[C@H]1O[C@@](CO)(O[C@H]2O[C@H](CO)[C@@H](O)[C@H](O)[C@H]2O)[C@@H](O)[C@@H]1O [Sucrose, sucrose]
[1]
  Effect: Enhanced sweetness

## O=C(CO)[C@@H](O)[C@@H](O)[C@H](O)CO [Tagatose]
[1]
  Effect: Enhanced sweetness

## OCCCO [Zemea® USP-FCC Propanediol, 1,3-propanediol]
40 untrained panelists; 5 ppm (0.0005%) in stevia-sweetened orange juice, control chosen by 26, one-tailed exact p-value 0.04
  number of 40 untrained panelists who identified the sample as more bitter: 14
40 untrained panelists; 5 ppm added directly to reduced sugar orange juice with stevia, p-value 0.04, one-tailed
  bitterness versus control containing no Zemea USP-FCC: statistically less bitter
[2]
  bitterness perception: lowest bitterness perception
Panelists [3]
  taste of Zemea USP-FCC PDO: tasteless
Panelists [4]
  bitterness of individual ingredients and beverages: less bitter
  liking of individual ingredients and beverages: more liked

Source: patent US20240090546A1, “COMPOSITIONS COMPRISING AND METHODS OF USING 1,3-PROPANEDIOL, TO IMPROVE SWEETNESS AND/OR REDUCE BITTERNESS OF SWEETENERS” (Primient Covation LLC, priority 2022, published 2024)
